Consider three compounds from publication PMC9558223, “Staphylococcus aureus is able to generate resistance to novel lipoglycopeptide antibiotic gausemycin A” (Frontiers in Microbiology, 2022).

Values after ≈ are worked out from the molar mass of the structure shown.

Assay [1] concerns S. aureus FDA209P. Briefly: Serial passaging in increasing concentrations of antimicrobials. As to conditions: for The highest concentration of antibiotic allowing growth: Mueller-Hinton II broth (CaCl2 50 mg/L), 37 °C, 24 h. Type of assay: cell-based, Staphylococcus aureus. As for the experimental part:
Gausemycin A-resistant variant was obtained by serial passaging as described previously (Pollard et al., [2012]). Isolated colonies of S. aureus FDA209P were inoculated into Mueller-Hinton II broth (CaCl2 50 mg/L) containing twofold dilutions of gausemycin A. The cultures were incubated at 37 °C with aeration for 24 h. After incubation, bacterial cells growing at the highest concentration of gausemycin A (below the MIC) were harvested and used for the next passage. The process was repeated for 20 passages. The dynamic of the developing resistance to gausemycin A was evaluated in comparison with daptomycin and ramoplanin. The experiments were performed in two independent series on separate days with three technical replicates each.

Assay [2] deals with S. aureus FDA209P. The assay can be described thus: microbe, parasite or virus in culture. Type of assay: cell-based, Staphylococcus aureus. As to conditions: broth microdilution (CLSI), 10^6 CFU/ml, 24 h, 37 °C, absorbance at 600 nm. Here is the method:
(§1) Minimal inhibitory concentration (MIC) was determined as previously described in Fuchs et al. ([2000]), following the Clinical and Laboratory Standards Institute (CLSI) guidelines for broth microdilution MIC assay. The bacteria were incubated in a 96-well microtiter plate (Eppendorf, Germany) containing 90 μL of inoculum prepared in growth media at 10^6 CFU/ml with 10 μL of twofold dilutions of the antibiotics. The results were evaluated after 24 h of cultivation at 37 °C. The bacterial growth was assessed by scanning the absorbance data at 600 nm obtained by spectrophotometer (Multiscan GO, Thermo Fisher Scientific, US).
For orientation: In broth dilution the organism is exposed to a series of concentrations in liquid medium.

For assay [3], the system named is S. aureus 5812R. The assay can be described thus: microbe, parasite or virus in culture. Type of assay: cell-based, Staphylococcus aureus. As to conditions: for MIC: S. aureus 5812R, broth microdilution (CLSI), 10^6 CFU/ml, 24 h, 37 °C, absorbance at 600 nm; for Change of MIC / resistance of S. aureus 5812R compared to parent strain S. aureus FDA209P: ratio of MIC for 5812R and FDA209P. Here is the method:
as §1

The subject of assay [4] is S. aureus 5812R. The assay can be described thus: microbe, parasite or virus in culture. Type of assay: cell-based, Staphylococcus aureus. As to conditions: S. aureus 5812R; single antibiotic, 10^6 CFU/mL, 24 h, 37 °C. As for the experimental part:
The effect of gausemycin A in combination with other antibiotics was evaluated using the checkerboard technique with modifications (Nwabor et al., [2021]). Briefly, 80 μL of diluted bacterial suspension (10^6 CFU/mL) was added to wells containing 10 μL of sub-inhibitory concentrations of gausemycin A and 10 μL of sub-inhibitory concentrations of conventional antibiotics. The plates were incubated for 24 h at 37°C. The effects of the antimicrobial combination were defined according to the fractional inhibitory concentration index (FICI). The ΣFICs were calculated as follows:
where FIC A is the MIC of drug A in the combination/MIC of drug A alone; and FIC B is the MIC of drug B in the combination/MIC of drug B alone. The result was interpreted as FIC ≤ 0.5 = Synergism, FIC > 0.5 to 1 = additivity, FIC >1 to 2 = indifference, and FIC >2 antagonism.

Assay [5] deals with biofilm-embedded staphylococcal cells. As to conditions: ref Vasilchenko et al., 2020; cited from earlier work. From the text:
These lipoglycopeptides were firstly described in 2016 (Lapchinskaya et al., [2016]), and consequently named gausemycins A and B (Tyurin et al., [2021]). Gausemycin A is a macrocyclic peptide containing 14 amino acids, where tyrosine is glycosylated with arabinose, which makes gausemycin A unique among natural peptide antibiotics (Tyurin et al., [2021]). The closest structurally related compounds are depsipeptides (daptomycin, taromycins, and cadazides) and cyclopeptides ( ...

In assay [6] the test system is Staphylococcus aureus FDA209 P. Briefly: ID32 Staph strip, resistance (novobiocin). Type of assay: cell-based. As to conditions: colorimetric test. As for the experimental part: (§2) The biochemical properties were assayed using the ID32 Staph strip (BioMerieux, France), which consists of a set of wells containing dried biochemical media for colorimetric tests.
Assay [7] relates to Staphylococcus aureus 5812R. The assay can be described thus: ID32 Staph strip, resistance (novobiocin). Type of assay: cell-based. As to conditions: colorimetric test. As for the experimental part:
as §2

For assay [8], the system named is S. aureus 5812R. The assay can be described thus: Resistance stability testing (passaging in drug-free medium). Type of assay: cell-based, Staphylococcus aureus. As to conditions: 17 passages in gausemycin A-free Muller-Hinton broth. Here is the method:
The overnight culture of S. aureus 5812R was sub-cultured in gausemycin A-free Muller-Hinton broth and incubated overnight at 37°C with shaking. The obtained culture was evaluated on susceptibility to gausemycin A in the MIC assay as described previously. Passaging in the drug-free medium was repeated 17 times. The experiments were performed in two independent series on separate days with three technical replicates each.

The test system of assay [9] is S. aureus FDA209P. Briefly: Membrane integrity assay (SYTO 9 / propidium iodide). Type of assay: cell-based, Staphylococcus aureus. As to conditions: 10 mM HEPES, 1.25 mM Ca2+, 10^8 CFU/ml, end-point 10 min. As for the experimental part: (§3) Membrane integrity was assessed using the fluorescent probes SYTO 9 and propidium iodide (PI) (LIVE/DEAD BacLight Bacterial Viability Kit, Molecular Probes, USA). The test strains were grown to the mid-log phase. The obtained cultures were centrifuged at 10,000 rpm for 10 min, the supernatant was discarded and the pellet was dispersed in 10 mM HEPES buffer supplemented with 1.25 mM Ca ^2+ to an optical density of 0.2 (OD 600) that corresponded to 10^8 CFU/ml. Bacterial cells in 50 μl were transferred to a 96-well microtiter plate (Eppendorf, US). SYTO 9 fluorescence kinetics was measured using Fluoroscan Ascent FL plate reader (Thermo Scientific, US) at 485 nm excitation and 535 nm of emission wavelengths as described earlier (Vasilchenko et al., [2020]). The assay was performed twice in three technical replicates.
(§4) Microscopy was performed using a Zeiss Axio Imager A2 fluorescent microscope (Carl Zeiss, Germany) equipped with filter sets useful for simultaneous viewing of SYTO 9 and PI stains.

The test system of assay [10] is S. aureus 5812R. The assay is described as above. Type of assay: cell-based, Staphylococcus aureus. As to conditions: 10 mM HEPES, 1.25 mM Ca2+, 10^8 CFU/ml, end-point 10 min. Here is the method:
as §3, §4

Turning to `CCCCCCCCCC(=O)N[C@@H](Cc1c[nH]c2ccccc12)C(=O)N[C@H](CC(N)=O)C(=O)N[C@@H](CC(=O)O)C(=O)N[C@@H]1C(=O)NCC(=O)N[C@@H](CCCN)C(=O)N[C@@H](CC(=O)O)C(=O)N[C@H](C)C(=O)N[C@@H](CC(=O)O)C(=O)NCC(=O)N[C@H](CO)C(=O)N[C@@H]([C@H](C)CC(=O)O)C(=O)N[C@@H](CC(=O)c2ccccc2N)C(=O)O[C@@H]1C` [Daptomycin], the “The highest concentration of antibiotic allowing growth” value (“The highest concentration” below) with S. aureus FDA209P [1] (passage 1), in the assay on S. aureus FDA209P [1] (passage 2), with S. aureus FDA209P [1] (passage 3), in the assay with S. aureus FDA209P [1] (passage 4), in the assay with S. aureus FDA209P [1] (passage 5) and in the assay on S. aureus FDA209P [1] (passage 6) was 1.25 µg/mL throughout. Besides, the “The highest concentration” value came out at 1.25 µg/mL with S. aureus FDA209P [1] (passage 7); 1.25 µg/mL in the assay on S. aureus FDA209P [1] (passage 8); 1.25 µg/mL with S. aureus FDA209P [1] (passage 9); 1.25 µg/mL in the assay with S. aureus FDA209P [1] (passage 10); 1.25 µg/mL in the assay with S. aureus FDA209P [1] (passage 11); 2.50 µg/mL with S. aureus FDA209P [1] (passage 12). Moreover, the “The highest concentration” value with S. aureus FDA209P [1] (passage 13), in the assay with S. aureus FDA209P [1] (passage 14), in the assay on S. aureus FDA209P [1] (passage 15), in the assay with S. aureus FDA209P [1] (passage 16), in the assay on S. aureus FDA209P [1] (passage 17) and in the assay on S. aureus FDA209P [1] (passage 18) was 2.50 µg/mL throughout. Further, the figures for the “The highest concentration” value with S. aureus FDA209P [1] (passage 19) and with S. aureus FDA209P [1] (passage 20) were 2.50 µg/mL and 5.0 µg/mL, respectively. Moreover, the MIC against S. aureus FDA209P [2] stood at 1.25 µg/mL (≈ 0.771 µM); with S. aureus 5812R [3] it was 5.0 µg/mL (≈ 3.09 µM). Moreover, in the assay with S. aureus 5812R [3], the “Change of MIC / resistance of S. aureus 5812R compared to parent strain S. aureus FDA209P” value is reported as 4 fold. Moreover, the “Cross-resistance of S. aureus 5812R” value in the assay on S. aureus 5812R [3] (susceptibility testing of gausemycin A-resistant strain) is reported as “cross-resistance”. Besides, in the assay with S. aureus 5812R [4], the MIC alone is 5.0 µg/mL. The “Inhibition of biofilm-embedded staphylococcal cells” value in assay [5] was “inactive”.
As to `CO[C@@H]1[C@@H](OC(N)=O)[C@@H](O)[C@H](Oc2ccc3c(O)c(NC(=O)c4ccc(O)c(CC=C(C)C)c4)c(=O)oc3c2C)OC1(C)C` [novobiocin], the “Resistance (Novobiocin)” value in [6] and in assay [7] was “Positive” throughout.
For Gausemycin A, the “The highest concentration” value with S. aureus FDA209P [1] (passage 1) came to 2.5 µg/mL; in the assay with S. aureus FDA209P [1] (passage 2), 2.5 µg/mL; with S. aureus FDA209P [1] (passage 3) it was 5 µg/mL; in the assay with S. aureus FDA209P [1] (passage 4), 5 µg/mL; in the assay with S. aureus FDA209P [1] (passage 5), 5 µg/mL; in the assay with S. aureus FDA209P [1] (passage 6) it was 5 µg/mL. The “The highest concentration” value was 5 µg/mL in the assay on S. aureus FDA209P [1] (passage 7); 10 µg/mL in the assay with S. aureus FDA209P [1] (passage 8); 20 µg/mL with S. aureus FDA209P [1] (passage 9); 40 µg/mL in the assay on S. aureus FDA209P [1] (passage 10); 40 µg/mL with S. aureus FDA209P [1] (passage 11); 40 µg/mL in the assay with S. aureus FDA209P [1] (passage 12). The “The highest concentration” value in the assay on S. aureus FDA209P [1] (passage 13) amounted to 50 µg/mL; in the assay on S. aureus FDA209P [1] (passage 14) it was 100 µg/mL; in the assay on S. aureus FDA209P [1] (passage 15), 100 µg/mL; with S. aureus FDA209P [1] (passage 16), 100 µg/mL; in the assay with S. aureus FDA209P [1] (passage 17), 150 µg/mL; in the assay with S. aureus FDA209P [1] (passage 18), 200 µg/mL. The entries for the “The highest concentration” value with S. aureus FDA209P [1] (passage 19) and in the assay on S. aureus FDA209P [1] (passage 20) were 200 µg/mL and over 200 µg/mL, respectively. The “Number of passages within which resistance was formed” value with S. aureus FDA209P [1] (serial passages with sub-inhibitory concentrations) is recorded as at most 20 passages. The MIC in the assay on S. aureus FDA209P [2] was 2.5 µg/mL; in the assay on S. aureus 5812R [3], over 200 µg/mL. Also, the “Change of MIC / resistance of S. aureus 5812R compared to parent strain S. aureus FDA209P” value with S. aureus 5812R [3] stood at 80 fold. Moreover, in the assay with S. aureus 5812R [8], the “Stability of resistance (MIC after passaging in drug-free medium)” value was “did not change the MIC value”. For the same compound, the “Concentration giving complete quenching of SYTO9 fluorescence” value in the assay with S. aureus FDA209P [9] stood at 50 µg/mL. Further, the “Quenching of SYTO9 fluorescence” value with S. aureus 5812R [10] is recorded as “not achieved at all taken concentrations”. Besides, the “Inhibition of biofilm-embedded staphylococcal cells” value in assay [5] is “able to inhibit”.
